Results: paper PMC5983644, “Expression and Interaction Analysis among Saffron ALDHs and Crocetin Dialdehyde” (International Journal of Molecular Sciences, 2018)

Molecular target: T1, ALDH20158 (Crocus sativus, UniProt A0A3G1GZK3)
T1 sequence (A0A3G1GZK3 31-535): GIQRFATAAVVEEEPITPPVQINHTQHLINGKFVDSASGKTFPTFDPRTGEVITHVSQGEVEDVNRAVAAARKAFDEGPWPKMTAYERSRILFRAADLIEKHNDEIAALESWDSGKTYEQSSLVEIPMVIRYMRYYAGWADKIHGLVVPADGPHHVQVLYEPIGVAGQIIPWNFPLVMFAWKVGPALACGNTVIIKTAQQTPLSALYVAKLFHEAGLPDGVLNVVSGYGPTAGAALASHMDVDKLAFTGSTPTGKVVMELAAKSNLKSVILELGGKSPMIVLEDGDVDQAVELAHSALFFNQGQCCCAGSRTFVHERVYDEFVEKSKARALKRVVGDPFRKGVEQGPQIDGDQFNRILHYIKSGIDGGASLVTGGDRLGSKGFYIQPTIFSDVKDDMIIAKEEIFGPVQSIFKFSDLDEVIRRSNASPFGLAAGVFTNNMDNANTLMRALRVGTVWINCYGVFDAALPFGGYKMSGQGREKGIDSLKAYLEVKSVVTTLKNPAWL
Assay: LC-APCI(+)-MS of crocetin formed by crude extract of E. coli expressing the enzyme
Type: biochemical
Settings: NAD+, pyrophosphate buffer, NaCl, pH 7.5, 28 C, 30 min; empty-vector extract as control

Structure (SMILES): C\C(C=O)=C/C=C/C(C)=C/C=C/C=C(C)/C=C/C=C(\C)C=O [crocetin dialdehyde]
- LC-APCI(+)-MS of crocetin formed by crude extract of E. coli expressing the enzy: the same results were obtained using ALDH20158 and ALDH3898
